Source: US3984547A, “Veterinary feedstuffs” (Bayer Aktiengesellschaft, priority 1971, dated 1976)
≈ marks a conversion by molar mass, not a printed value. Where two headings read alike, the source gives them in different places.

Tests used:
Mycoplasma bovirhinis = test: MIC, series dilution test (PPLO medium); assay type: cell-based; conditions: 37° C, 18, 24 and 48 h, read-out: minimal inhibitory concentrations (MIC)
Method: (§1) For the compound of Example 3, the following minimal inhibitory concentrations (MIC) (γ/ml of nutrient medium) were measured by the series dilution test (PPLO medium), incubation temperature 37° C, determination after 18, 24 and 48 hours.

Mycoplasma gallisepticum = test: MIC, series dilution test (PPLO medium); assay type: cell-based; conditions: Mycoplasmoides gallisepticum, 37° C, 18, 24 and 48 h, read-out: minimal inhibitory concentrations (MIC)
Method: as §1

Mycoplasma granularum = test: MIC, series dilution test (PPLO medium); assay type: cell-based; conditions: Acholeplasma granularum, 37° C, 18, 24 and 48 h, read-out: minimal inhibitory concentrations (MIC)
Method: as §1

Escherichia coli C 165 = test: ED100 in mice after intraperitoneal infection, Table 3; assay type: in vivo; conditions: read-out: effective 100% dose (ED100)
Method: In animal experiments on mice, the effective 100% dose (ED100) in mg/Kg was determined for certain compounds of the invention after intraperitoneal infection and subcutaneous (s.c.) or oral (p.o.) administration of the preparation.

Proteus vulgaris species = test: MIC in vitro, plate test (agar), Table 1; assay type: cell-based; conditions: about 37° C, readings 24 and 48 h
Method: The minimum inhibitory concentrations in vitro for some of the new compounds shown in Table 1 (MIC) were determined by the plate test in an agar medium of the following composition: |proteose peptone 10.0 g per liter |5.1 × 10^3 germs were inoculated per plate. […]. Readings were taken after 24 and 48 hours, and the incubation temperature was about 37° C.

Question: What does the source list for `CN=Cc1c(C(=O)O)[n+]([O-])c2ccccc2[n+]1[O-]` [Example 3]?
Answer: MIC (Mycoplasma bovirhinis): 200 µg/mL (≈ 809 µM); MIC (Mycoplasma gallisepticum): 100 µg/mL (≈ 405 µM); MIC (Mycoplasma granularum): 25 µg/mL (≈ 101 µM); ED100 (Escherichia coli C 165; C165, oral (p.c. [sic])): 100 mg/kg; ED100 (Escherichia coli C 165; C165, sc, s.c.): 50 mg/kg

Question: What does the source list for `CN(C)N=Cc1c(C(=O)O)[n+]([O-])c2ccccc2[n+]1[O-]` [Example 14]?
Answer: ED100 (Escherichia coli C 165; C165, oral (p.c. [sic])): 100 mg/kg; ED100 (Escherichia coli C 165; C165, sc, s.c.): 50 mg/kg

Question: `NC(=O)NN=Cc1c(C(=O)O)[n+]([O-])c2ccccc2[n+]1[O-]` [Example 12] was tested. Which MIC (Proteus vulgaris species) did it give?
Answer: Its MIC is 150 µg/mL (≈ 515 µM).
